{"source": "paper PMC12207880", "about": "(The Oncologist, 2025)", "origin": "cited, not measured here", "key": {"advanced solid tumors": {"test_system": "advanced solid tumors", "set-up": "method as in earlier work"}, "[1]": {"test_system": "patients treated with endocrine therapy combined with palbociclib"}, "[2]": {"details": "200 mg BID"}, "[3]": {"test_system": "patients treated with abemaciclib alone"}, "[4]": {"details": "sample size 33 (escalation phase), U.S.A"}, "[5]": {"details": "sample size 132, U.S.A, France, Netherland"}}, "note": "Where two headings read alike, the source gives them in different places."}
{"smiles": "CC(=O)c1c(C)c2cnc(Nc3ccc(N4CCNCC4)cn3)nc2n(C2CCCC2)c1=O", "note": "[Palbociclib, palbociclib]", "values": [{"measurement": "Overall DCR", "setting": "advanced solid tumors; sample size 37, U.S.A", "value": 35, "unit": "%"}, {"measurement": "Overall ORR", "setting": "advanced solid tumors; sample size 37, U.S.A", "value": 0, "unit": "%"}, {"measurement": "grade 4 increased GGT", "setting": "[1]; 1 of 135 patients", "value": 0.7, "unit": "%"}, {"measurement": "grade 3 increased GGT", "setting": "[1]; 3 of 135 patients", "value": 2.2, "unit": "%"}, {"measurement": "overall incidence of increased GGT", "setting": "[1]; 135 patients", "value": 4.4, "unit": "%"}]}
{"smiles": "CCN1CCN(Cc2ccc(Nc3ncc(F)c(-c4cc(F)c5nc(C)n(C(C)C)c5c4)n3)nc2)CC1", "note": "[Abemaciclib, abemaciclib]", "values": [{"measurement": "Ctrough", "setting": "[2]; n=5", "value": "210 (89%, n=5) ng/mL"}, {"measurement": "Ctrough", "setting": "[2]; n=52", "value": "197 (82%, n=52) ng/mL"}, {"measurement": "Overall DCR", "setting": "advanced solid tumors; sample size 25, China", "value": 68.0, "unit": "%"}, {"measurement": "Overall ORR", "setting": "advanced solid tumors; sample size 25, China", "value": 8.0, "unit": "%"}, {"measurement": "Overall DCR", "setting": "advanced solid tumors; [4]", "value": 48.5, "unit": "%"}, {"measurement": "Overall ORR", "setting": "advanced solid tumors; [4]", "value": 0, "unit": "%"}, {"measurement": "hypokalaemia of grade 3", "setting": "[3]", "value": 2, "unit": "patients"}, {"measurement": "hypokalaemia of all grades", "setting": "[3]; 34 of 130 patients", "value": 26.2, "unit": "%"}]}
{"smiles": "CN(C)C(=O)c1cc2cnc(Nc3ccc(N4CCNCC4)cn3)nc2n1C1CCCC1", "note": "[Ribociclib, ribociclib]", "values": [{"measurement": "Overall DCR", "setting": "advanced solid tumors; [5]", "value": 32.6, "unit": "%"}, {"measurement": "Overall ORR", "setting": "advanced solid tumors; [5]", "value": 2.3, "unit": "%"}]}
